{"source": "patent US6825348B2", "about": "“Antiviral compounds” (Academia Sinica, priority 2002, dated 2004)", "key": {"[1]": {"biological_target": "T1, calf mucosal adenosine deaminase (ADA, EC 3.5.4.4) (Bos taurus, UniProt P56658)", "T1 sequence (P56658 1-363)": "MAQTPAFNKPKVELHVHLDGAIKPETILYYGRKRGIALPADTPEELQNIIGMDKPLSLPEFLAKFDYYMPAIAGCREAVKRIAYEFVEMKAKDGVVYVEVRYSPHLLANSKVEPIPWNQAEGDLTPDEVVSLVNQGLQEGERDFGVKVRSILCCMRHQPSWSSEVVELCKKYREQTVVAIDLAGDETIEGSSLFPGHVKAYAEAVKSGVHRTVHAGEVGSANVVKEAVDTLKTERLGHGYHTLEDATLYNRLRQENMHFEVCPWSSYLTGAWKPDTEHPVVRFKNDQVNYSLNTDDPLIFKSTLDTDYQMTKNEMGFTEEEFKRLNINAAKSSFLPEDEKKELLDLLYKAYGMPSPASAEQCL", "test": "Substrate activity and competitive inhibition of adenosine deaminase", "format": "biochemical"}, "[2]": {"test_system": "herpes simplex type 1 virus (HSV-1) (KOS)", "test": "Inhibition of HSV-1 cytopathogenicity in Vero cell culture", "format": "cell-based", "details": "Human alphaherpesvirus 1, Vero, read-out: IC50 HSV-1 (KOS)"}, "[3]": {"test_system": "thymidine kinase-positive (TK+) varicella-zoster virus (YS)", "test": "Inhibition of TK+ VZV cytopathogenicity in Vero cell culture", "format": "cell-based"}, "[4]": {"test_system": "thymidine kinase-deficient (TK−) varicella-zoster virus (YS/R)", "test": "microbe, parasite or virus in culture", "format": "cell-based", "details": "Human alphaherpesvirus 3, Vero, read-out: IC50 TK−VZV (YS/R)"}, "[5]": {"test_system": "human cytomegalovirus (AD-169)", "test": "Inhibition of HCMV cytopathogenicity in Vero cell culture", "format": "cell-based", "details": "Human betaherpesvirus 5, AD169; Vero cell culture; 50% inhibition of cytopathogenicity; for 1:1 mixtures IC50 refers to known antiviral drugs; read-out: IC50 HCMV (AD-169)"}, "HIV-1 (IIIB)": {"test_system": "HIV-1 (IIIB)", "test": "microbe, parasite or virus in culture", "format": "cell-based", "details": "Human immunodeficiency virus 1, IIIB; MT4 cells, average of duplicates; read-out: IC50 HIV-1 (IIIB)"}, "HIV-2 (LAV-2)": {"test_system": "HIV-2 (LAV-2)", "test": "Inhibition of HIV-2 cytopathogenicity in MT4 cells", "format": "cell-based, human immunodeficiency virus", "details": "Human immunodeficiency virus 2; MT4 cells, average of duplicates; read-out: IC50 HIV-2 (LAV-2)"}, "[6]": {"test_system": "moloney murine sarcoma virus (MSV)", "test": "Inhibition of MSV cytopathogenicity in CEM cells (cell-protection assay)", "format": "cell-based", "details": "Moloney murine sarcoma virus, CCRF-CEM; CEM cells, average of duplicates; read-out: IC50 MSV"}, "HSV-1 (KOS)": {"test_system": "HSV-1 (KOS)", "test": "Anti-HSV-1 activity in vivo, HSV-1-induced mortality in NMRI mice", "details": "6 days; for mean day of animal death / mean day of symptom initiation: terminated day 21; for responders at 100 mg/kg / responders at 150 mg/kg / responders at 250 mg/kg: Human alphaherpesvirus 1, ip, 504 h"}, "HeLa cells": {"test_system": "HeLa cells", "details": "human"}, "Vero cells": {"test_system": "Vero cells", "details": "African green monkey"}, "MT4 cells": {"test_system": "MT4 cells", "test": "Toxicity toward MT4 cells"}, "CEM cells": {"test_system": "CEM cells", "test": "Toxicity toward CEM cells"}, "[7]": {"test": "LD50 and toxicity in mice, intraperitoneal"}, "[8]": {"test": "Lipophilicity, 1-octanol/water partition coefficient", "details": "1-octanol/water (0.10 M phosphate buffer)"}, "[9]": {"test": "Solubility in water (phosphate buffer, UV absorbance)", "details": "phosphate buffer, pH 6.8, aqueous buffer, thermodynamic from solid"}, "[10]": {"test_system": "Snake venom phosphodiesterase", "test": "Activity of snake venom phosphodiesterase against nucleotide analogs", "details": "pH 9.2, 37° C., 8 h"}}, "note": "Where two headings read alike, the source gives them in different places.", "data": [{"smiles": "COC1=C(OC)/C(=C/COP(=O)(O)OC[C@H]2O[C@@H](n3cnc4c(N)ncnc43)[C@H](O)[C@@H]2OP(=O)(O)COCCn2cnc3ncnc(N)c32)OC1=O", "note": "[Compound 25, 9-[[(Z)-4-(ethylidene)-2,3-dimethoxy-Δ^a,b-butenolide]-β-D-furanosyl]adenine-3′-[[1-(adenin-7-yl-ethoxy)methyl]phosphonate]-4,5′-phosphate]", "values": [{"measurement": "ADA substrate / inhibitor property in words", "setting": "[1]", "value": "neither a good substrate nor an inhibitor"}, {"measurement": "IC50", "setting": "[2]", "value": 3, "unit": "µg/mL"}, {"measurement": "IC50 TK+VZV (YS)", "setting": "[3]", "value": 1.7, "unit": "µg/mL"}, {"measurement": "IC50", "setting": "[4]", "value": 2, "unit": "µg/mL"}, {"measurement": "IC50", "setting": "[5]", "value": 4.1, "unit": "µg/mL"}, {"measurement": "IC50", "setting": "HIV-1 (IIIB)", "value": 4.9, "unit": "µg/mL"}, {"measurement": "IC50", "setting": "HIV-2 (LAV-2)", "value": 4.2, "unit": "µg/mL"}, {"measurement": "IC50", "setting": "[6]", "value": 13, "unit": "µg/mL"}, {"measurement": "mean day of animal death", "setting": "HSV-1 (KOS); 100 mg/kg/day i.p.", "value": ">21", "unit": "days"}, {"measurement": "mean day of symptom initiation", "setting": "HSV-1 (KOS); 100 mg/kg/day i.p.", "value": "19.6 ± 1.5", "unit": "days"}, {"measurement": "protection against HSV-induced mortality", "setting": "HSV-1 (KOS); 150 mg/kg dose level i.p.", "value": "full protection"}, {"measurement": "mean day of animal death", "setting": "HSV-1 (KOS); 150 mg/kg/day i.p.", "value": ">21", "unit": "days"}, {"measurement": "mean day of symptom initiation", "setting": "HSV-1 (KOS); 150 mg/kg/day i.p.", "value": ">21", "unit": "days"}, {"measurement": "mean day of animal death", "setting": "HSV-1 (KOS); 250 mg/kg/day i.p.", "value": ">21", "unit": "days"}, {"measurement": "mean day of symptom initiation", "setting": "HSV-1 (KOS); 250 mg/kg/day i.p.", "value": ">21", "unit": "days"}, {"measurement": "responders at 100 mg/kg", "setting": "HSV-1 (KOS); 100 mg/kg/day i.p., read-out: percentage of HSV-1-infected mice alive at day 21 postinfection", "value": 100, "unit": "%"}, {"measurement": "responders at 100 mg/kg", "setting": "HSV-1 (KOS); 100 mg/kg/day i.p., read-out: percentage of HSV-1-infected mice without symptoms at day 21 postinfection", "value": 94, "unit": "%"}, {"measurement": "responders at 150 mg/kg", "setting": "HSV-1 (KOS); 150 mg/kg/day i.p., read-out: percentage of HSV-1-infected mice alive at day 21 postinfection", "value": 100, "unit": "%"}, {"measurement": "responders at 150 mg/kg", "setting": "HSV-1 (KOS); 150 mg/kg/day i.p., read-out: percentage of HSV-1-infected mice without symptoms at day 21 postinfection", "value": 100, "unit": "%"}, {"measurement": "responders at 250 mg/kg", "setting": "HSV-1 (KOS); 250 mg/kg/day i.p., read-out: percentage of HSV-1-infected mice alive at day 21 postinfection", "value": 100, "unit": "%"}, {"measurement": "responders at 250 mg/kg", "setting": "HSV-1 (KOS); 250 mg/kg/day i.p., read-out: percentage of HSV-1-infected mice without symptoms at day 21 postinfection", "value": 100, "unit": "%"}, {"measurement": "HeLa cell, concentration causing microscopically visible change or disruption in about 50% of the cell sheet", "setting": "HeLa cells", "value": 326, "unit": "µg/mL"}, {"measurement": "Vero cell, concentration causing microscopically visible change or disruption in about 50% of the cell sheet", "setting": "Vero cells", "value": 350, "unit": "µg/mL"}, {"measurement": "MT4 cell, concentration reducing the number of viable uninfected cells by 50%", "setting": "MT4 cells", "value": ">300", "unit": "µg/mL"}, {"measurement": "CEM cell, concentration reducing the number of viable uninfected cells by 50%", "setting": "CEM cells", "value": ">300", "unit": "µg/mL"}, {"measurement": "LD50", "setting": "[7]; NMRI, mouse, in vivo, ip", "value": 675, "unit": "mg/kg"}, {"measurement": "level up to which no toxicity was shown", "setting": "[7]; mice, intraperitoneal", "value": 400, "unit": "mg/kg"}, {"measurement": "logP at […]", "setting": "[8]", "value": 1.37}, {"measurement": "solubility at 20 h", "setting": "[9]", "value": 5160, "unit": "µg/mL"}, {"measurement": "stability to snake venom phosphodiesterase in words", "setting": "[10]", "value": "completely resistant"}]}]}
